Experimental data as given in the OligoGym collection.
Oligonucleotides are written 5' to 3', each unit as a sugar letter and its base; * is a phosphorothioate linkage, no mark a phosphodiester; rarer units and linkages stand in square brackets, end groups in braces. Plain capitals give the bases only. d = 2'-deoxy (DNA); r = 2'-OH (RNA)

target: UBE2G1; experiment: reporter assay of Huesken 2005; conditions: siRNA
Also: test concentration or dose not given here.

| Substance | normalised inhibition (eCFP-eYFP dual reporter) |
| --- | --- |
| sense rGrGrCrUrUrUrUrCrUrGrCrArGrGrUrUrUrArAdTdT / antisense rUrUrArArArCrCrUrGrCrArGrArArArArGrCrCdTdT | 83.3% |
| sense rGrGrUrGrArUrGrUrGrUrGrCrArUrUrUrCrUrAdTdT / antisense rUrArGrArArArUrGrCrArCrArCrArUrCrArCrCdAdT | 94.7% |
| sense rGrUrUrArUrGrArArArArGrCrCrArGrArGrGrAdTdT / antisense rUrCrCrUrCrUrGrGrCrUrUrUrUrCrArUrArArCdCdA | 49.3% |
| sense rUrArCrCrGrArUrGrGrGrArArGrUrCrCrUrUrAdTdT / antisense rUrArArGrGrArCrUrUrCrCrCrArUrCrGrGrUrAdGdA | 93.1% |
| sense rUrArUrCrCrArCrArCrUrGrUrGrGrArArArCrCdTdT / antisense rGrGrUrUrUrCrCrArCrArGrUrGrUrGrGrArUrAdGdG | 41.2% |
| sense rUrArUrGrGrUrUrArUrGrArArArArGrCrCrArGdTdT / antisense rCrUrGrGrCrUrUrUrUrCrArUrArArCrCrArUrAdCdT | 31.8% |
| sense rUrCrArUrGrArGrCrCrUrGrGrGrGrArArGrArUdTdT / antisense rArUrCrUrUrCrCrCrCrArGrGrCrUrCrArUrGrAdAdG | 76.4% |
| sense rUrCrCrArCrArCrUrGrUrGrGrArArArCrCrArUdTdT / antisense rArUrGrGrUrUrUrCrCrArCrArGrUrGrUrGrGrAdTdA | 85.3% |
| sense rUrCrCrCrUrArUrCrCrArCrArCrUrGrUrGrGrAdTdT / antisense rUrCrCrArCrArGrUrGrUrGrGrArUrArGrGrGrAdGdC | 62.1% |
| sense rUrCrCrUrUrArUrUrArUrUrGrGrCrCrCrUrCrCdTdT / antisense rGrGrArGrGrGrCrCrArArUrArArUrArArGrGrAdCdT | 44.7% |
| sense rUrCrUrGrCrArGrGrUrUrUrArArUrArGrArUrGdTdT / antisense rCrArUrCrUrArUrUrArArArCrCrUrGrCrArGrAdAdA | 60.6% |
| sense rUrCrUrGrGrCrArCrCrCrArArArUrGrUrUrGrAdTdT / antisense rUrCrArArCrArUrUrUrGrGrGrUrGrCrCrArGrAdTdT | 73.4% |
| sense rUrGrArArArArGrCrCrArGrArGrGrArArCrGrCdTdT / antisense rGrCrGrUrUrCrCrUrCrUrGrGrCrUrUrUrUrCrAdTdA | 35.9% |
| sense rUrGrArArArUrUrCrArUrUrArCrArGrArArArUdTdT / antisense rArUrUrUrCrUrGrUrArArUrGrArArUrUrUrCrAdTdT | 61.6% |
| sense rUrGrArUrGrUrGrUrGrCrArUrUrUrCrUrArUrUdTdT / antisense rArArUrArGrArArArUrGrCrArCrArCrArUrCrAdCdC | 74.8% |
| sense rUrGrArUrUrArGrUrGrUrCrArUrUrUrCrUrArUdTdT / antisense rArUrArGrArArArUrGrArCrArCrUrArArUrCrAdTdG | 78.5% |
| sense rUrGrCrCrCrGrCrUrGrUrGrUrArArGrArArArAdTdT / antisense rUrUrUrUrCrUrUrArCrArCrArGrCrGrGrGrCrAdAdC | 94.3% |
| sense rUrGrCrGrArArArGrArArUrGrGrArGrGrGrArAdTdT / antisense rUrUrCrCrCrUrCrCrArUrUrCrUrUrUrCrGrCrAdGdC | 72.7% |
| sense rUrGrCrUrGrCrGrArArArGrArArUrGrGrArGrGdTdT / antisense rCrCrUrCrCrArUrUrCrUrUrUrCrGrCrArGrCrAdTdC | 34.4% |
| sense rUrGrGrArGrArArUrUrUrArArArArGrArArArAdTdT / antisense rUrUrUrUrCrUrUrUrUrArArArUrUrCrUrCrCrAdTdT | 74.2% |
| sense rUrGrGrUrGrArUrGrUrGrUrGrCrArUrUrUrCrUdTdT / antisense rArGrArArArUrGrCrArCrArCrArUrCrArCrCrAdTdT | 85% |
| sense rUrUrArGrUrGrUrCrArUrUrUrCrUrArUrGrCrUdTdT / antisense rArGrCrArUrArGrArArArUrGrArCrArCrUrArAdTdC | 54% |
| sense rUrUrCrUrArUrGrCrUrGrGrCrArGrArCrCrCrUdTdT / antisense rArGrGrGrUrCrUrGrCrCrArGrCrArUrArGrArAdAdT | 61% |
| sense rUrUrUrArArArArGrArArArArGrUrUrGrCrCrCdTdT / antisense rGrGrGrCrArArCrUrUrUrUrCrUrUrUrUrArArAdTdT | 43.5% |
| sense rUrUrUrCrUrArUrUrCrUrUrCrArUrGrArGrCrCdTdT / antisense rGrGrCrUrCrArUrGrArArGrArArUrArGrArArAdTdG | 29.5% |
| sense rUrUrUrCrUrGrCrArGrGrUrUrUrArArUrArGrAdTdT / antisense rUrCrUrArUrUrArArArCrCrUrGrCrArGrArArAdAdG | 51.7% |
